# Test results reported in ChEMBL document CHEMBL1201861, “Genomics of Drug Sensitity in Cancer screening data, Wellcome Trust Sanger Institute”.
# Legend:
# Experiment in all cases: cells
# HEL = format: functional, cell-based, Homo sapiens; conditions: Homo sapiens, HEL;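 further: growth inhibition of HEL cells, read out with a cell viability assay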
# Description: SANGER: Inhibition of human HEL cell growth in a cell viability assay.
# MDA-MB-175-VII = format: functional, cell-based, Homo sapiens; conditions: Homo sapiens, MDA-MB-175-VII
# NCI-H28 = format: functional, cell-based, Homo sapiens; conditions: Homo sapiens, NCI-H28;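 further: growth inhibition of human NCI-H28 cells, read out as cell viability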
# Description: SANGER: Inhibition of human NCI-H28 cell growth in a cell viability assay.
# MOLT-4 = format: functional, cell-based; conditions: Homo sapiens;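 further: growth inhibition of MOLT-4 cells, determined with a cell viability readout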
# Description: SANGER: Inhibition of human MOLT-4 cell growth in a cell viability assay.
# Mo = format: functional, cell-based; conditions: Homo sapiens
# Description: SANGER: Inhibition of human Mo-T cell growth in a cell viability assay.
# HDLM-2 = format: functional, cell-based; conditions: Homo sapiens;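 further: cell viability assay measuring suppression of HDLM-2 proliferation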
# Description: SANGER: Inhibition of human HDLM-2 cell growth in a cell viability assay.
# GAMG = format: functional, cell-based, Homo sapiens; conditions: Homo sapiens, GAMG;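 further: cell growth inhibition measured by a viability assay in the GAMG human cell line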
# Description: SANGER: Inhibition of human GAMG cell growth in a cell viability assay.
# COLO-684 = format: functional, cell-based; conditions: Homo sapiens
# Description: SANGER: Inhibition of human COLO-684 cell growth in a cell viability assay.
# BB65-RCC = format: functional, cell-based, Homo sapiens; conditions: Homo sapiens, BB65-RCC;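 further: growth inhibition of the cell line, measured with a cell viability assay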
# Description: SANGER: Inhibition of human BB65-RCC cell growth in a cell viability assay.
# C8166 = format: functional, cell-based; conditions: Homo sapiens;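 further: growth inhibition of human C8166 cells measured by a cell viability assay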
# Description: SANGER: Inhibition of human C8166 cell growth in a cell viability assay.
# SK-MEL-1 = format: functional, cell-based; conditions: Homo sapiens;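 further: growth inhibition of human SK-MEL-1 cells, read out by a cell viability assay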
# Description: SANGER: Inhibition of human SK-MEL-1 cell growth in a cell viability assay.
# HCC1395 = format: functional, cell-based, Homo sapiens; conditions: Homo sapiens, HCC1395;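 further: growth inhibition of HCC1395 cells, read out by a cell viability assay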
# Description: SANGER: Inhibition of human HCC1395 cell growth in a cell viability assay.
# HCE-T = format: functional, cell-based, Homo sapiens; conditions: Homo sapiens, HCE-T;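 further: cell viability assay read-out, reporting inhibition of HCE-T cell growth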
# Description: SANGER: Inhibition of human HCE-T cell growth in a cell viability assay.
# SBC-5 = format: functional, cell-based, Homo sapiens; conditions: Homo sapiens, SBC-5;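 further: cell viability assay read-out, IC50 is the concentration that inhibits growth of the cells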
# Description: SANGER: Inhibition of human SBC-5 cell growth in a cell viability assay.
# ABC-1 = format: functional, cell-based, Homo sapiens; conditions: Homo sapiens, ABC-1;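 further: growth inhibition of human ABC-1 cells, read out by a cell viability assay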
# Description: SANGER: Inhibition of human ABC-1 cell growth in a cell viability assay.
# SCC-4 = format: functional, cell-based, Homo sapiens; conditions: Homo sapiens, SCC-4;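 further: growth inhibition of human SCC-4 cells, read out as cell viability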
# Description: SANGER: Inhibition of human SCC-4 cell growth in a cell viability assay.
# U-251 = format: functional, cell-based, Homo sapiens; conditions: Homo sapiens, U-251;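 further: growth inhibition of human U-251 cells, read out through a cell viability assay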
# Description: SANGER: Inhibition of human U251 cell growth in a cell viability assay.
# HT-1080 = format: functional, cell-based, Homo sapiens; conditions: Homo sapiens, HT-1080
# Description: SANGER: Inhibition of human HT-1080 cell growth in a cell viability assay.
# NCI-H720 = format: functional, cell-based; conditions: Homo sapiens;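 further: growth inhibition of human NCI-H720 cells determined by a cell viability assay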
# Description: SANGER: Inhibition of human NCI-H720 cell growth in a cell viability assay.
# BEN = format: functional, cell-based, Homo sapiens; conditions: Homo sapiens, BEN;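 further: growth inhibition of the BEN cell line, read out with a cell viability assay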
# Description: SANGER: Inhibition of human BEN cell growth in a cell viability assay.
# HCC2218 = format: functional, cell-based; conditions: Homo sapiens;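 further: cell viability assay read-out, with IC50 given as the concentration that inhibits growth of the cell line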
# Description: SANGER: Inhibition of human HCC2218 cell growth in a cell viability assay.
# SCC-9 = format: functional, cell-based, Homo sapiens; conditions: Homo sapiens, SCC-9;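 further: Read-out is a cell viability assay, with values giving inhibition of cell growth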
# Description: SANGER: Inhibition of human SCC-9 cell growth in a cell viability assay.
# CHL-1 = format: functional, cell-based, Homo sapiens; conditions: Homo sapiens, CHL-1;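 further: cell growth inhibition, read out with a cell viability assay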
# Description: SANGER: Inhibition of human CHL-1 cell growth in a cell viability assay.
# RPMI-8226 = format: functional, cell-based; conditions: Homo sapiens
# Description: SANGER: Inhibition of human RPMI-8226 cell growth in a cell viability assay.
# HSC-2 = format: functional, cell-based, Homo sapiens; conditions: Homo sapiens, HSC-2;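 further: growth inhibition of human HSC-2 cells, read out by a cell viability assay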
# Description: SANGER: Inhibition of human HSC-2 cell growth in a cell viability assay.
# SNU-449 = format: functional, cell-based, Homo sapiens; conditions: Homo sapiens, SNU-449
# Description: SANGER: Inhibition of human SNU-449 cell growth in a cell viability assay.
# UO-31 = format: functional, cell-based; conditions: Homo sapiens;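 further: cell viability assay measuring inhibition of cell growth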
# Description: SANGER: Inhibition of human U031 cell growth in a cell viability assay.
# DU-145 = format: functional, cell-based, Homo sapiens; conditions: Homo sapiens, DU-145
# Description: SANGER: Inhibition of human DU-145 cell growth in a cell viability assay.
# PC-3 = format: functional, cell-based, Homo sapiens; conditions: Homo sapiens, PC-3;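 further: cell viability assay measuring growth inhibition of PC-3 cells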
# Description: SANGER: Inhibition of human PC-3 cell growth in a cell viability assay.
# K5 = format: functional, cell-based, Homo sapiens; conditions: Homo sapiens, K5
# Description: SANGER: Inhibition of human K5 cell growth in a cell viability assay.
# NCI-H1563 = format: functional, cell-based, Homo sapiens; conditions: Homo sapiens, NCI-H1563;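 further: growth inhibition of human NCI-H1563 cells, read out with a cell viability assay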
# Description: SANGER: Inhibition of human NCI-H1563 cell growth in a cell viability assay.
# A-427 = format: functional, cell-based, Homo sapiens; conditions: Homo sapiens, A-427;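 further: growth inhibition of human A-427 cells, read out by a cell viability assay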
# Description: SANGER: Inhibition of human A427 cell growth in a cell viability assay.
# SK-LMS-1 = format: functional, cell-based, Homo sapiens; conditions: Homo sapiens, SK-LMS-1;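 further: growth inhibition of human SK-LMS-1 cells, read out with a cell viability assay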
# Description: SANGER: Inhibition of human SK-LMS-1 cell growth in a cell viability assay.
# G-402 = format: functional, cell-based, Homo sapiens; conditions: Homo sapiens, G-402
# Description: SANGER: Inhibition of human G-402 cell growth in a cell viability assay.
# RVH-421 = format: functional, cell-based, Homo sapiens; conditions: Homo sapiens, RVH-421
# Description: SANGER: Inhibition of human RVH-421 cell growth in a cell viability assay.
# OVCAR-5 = format: functional, cell-based, Homo sapiens; conditions: Homo sapiens, OVCAR-5;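 further: growth inhibition of human OVCAR-5 cells, read out with a cell viability assay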
# Description: SANGER: Inhibition of human OVCAR-5 cell growth in a cell viability assay.
# LS-1034 = format: functional, cell-based, Homo sapiens; conditions: Homo sapiens, LS-1034
# Description: SANGER: Inhibition of human LS-1034 cell growth in a cell viability assay.
# A204 = format: functional, cell-based, Homo sapiens; conditions: Homo sapiens, A204;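 further: growth inhibition of human A204 cells, read out with a cell viability assay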
# Description: SANGER: Inhibition of human A204 cell growth in a cell viability assay.
# NCI-H1755 = format: functional, cell-based, Homo sapiens; conditions: Homo sapiens, NCI-H1755;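 further: cell viability readout used to measure growth inhibition of NCI-H1755 cells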
# Description: SANGER: Inhibition of human NCI-H1755 cell growth in a cell viability assay.
# COR-L88 = format: functional, cell-based; conditions: Homo sapiens;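 further: growth inhibition of COR-L88 cells, read out with a cell viability assay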
# Description: SANGER: Inhibition of human COR-L88 cell growth in a cell viability assay.
# SF-126 = format: functional, cell-based, Homo sapiens; conditions: Homo sapiens, SF-126;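 further: growth inhibition of human SF126 cells, read out with a cell viability assay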
# Description: SANGER: Inhibition of human SF126 cell growth in a cell viability assay.
# HD-MY-Z = format: functional, cell-based, Homo sapiens; conditions: Homo sapiens, HD-MY-Z;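 further: growth inhibition of HD-MY-Z cells, read out with a cell viability assay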
# Description: SANGER: Inhibition of human HD-MY-Z cell growth in a cell viability assay.
# IA-LM = format: functional, cell-based, Homo sapiens; conditions: Homo sapiens, IA-LM;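 further: cell viability assay measuring growth inhibition of human IA-LM cells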
# Description: SANGER: Inhibition of human IA-LM cell growth in a cell viability assay.
# RPMI-7951 = format: functional, cell-based, Homo sapiens; conditions: Homo sapiens, RPMI-7951
# Description: SANGER: Inhibition of human RPMI-7951 cell growth in a cell viability assay.
# NCI-H1155 = format: functional, cell-based; conditions: Homo sapiens;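 further: cell growth inhibition measured by a viability assay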
# Description: SANGER: Inhibition of human NCI-H1155 cell growth in a cell viability assay.
# RERF-LC-MS = format: functional, cell-based, Homo sapiens; conditions: Homo sapiens, RERF-LC-MS;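 further: growth inhibition of human RERF-LC-MS cells, read out by a cell viability assay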
# Description: SANGER: Inhibition of human RERF-LC-MS cell growth in a cell viability assay.
# Becker = format: functional, cell-based, Homo sapiens; conditions: Homo sapiens, Becker;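 further: growth inhibition of Becker cells, read out with a cell viability assay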
# Description: SANGER: Inhibition of human Becker cell growth in a cell viability assay.
# MOLT-16 = format: functional, cell-based; conditions: Homo sapiens;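 further: growth inhibition of human MOLT-16 cells, read out with a cell viability assay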
# Description: SANGER: Inhibition of human MOLT-16 cell growth in a cell viability assay.
# RPMI-2650 = format: functional, cell-based, Homo sapiens; conditions: Homo sapiens, RPMI-2650
# Description: SANGER: Inhibition of human RPMI-2650 cell growth in a cell viability assay.
# TE-5 = format: functional, cell-based, Homo sapiens; conditions: Homo sapiens, TE-5;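 further: inhibition of cell growth, read out by a cell viability assay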
# Description: SANGER: Inhibition of human TE-5 cell growth in a cell viability assay.
# PA-1 = format: functional, cell-based, Homo sapiens; conditions: Homo sapiens, PA-1;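 further: IC50 for suppression of PA-1 cell proliferation, determined with a cell viability read-out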
# Description: SANGER: Inhibition of human PA-1 cell growth in a cell viability assay.
# SW 962 = format: functional, cell-based, Homo sapiens; conditions: Homo sapiens, SW 962;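 further: growth inhibition of human SW962 cells, read out by a cell viability assay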
# Description: SANGER: Inhibition of human SW962 cell growth in a cell viability assay.
structure (smiles),measurement,setting,value
C=CCc1cccc(/C=N/NC(=O)CN2CCN(Cc3ccccc3)CC2)c1O [PAC-1],IC50,HEL,> 2560 nM
same,IC50,MDA-MB-175-VII,> 2560 nM
same,IC50,NCI-H28,> 2560 nM
same,IC50,MOLT-4,> 2560 nM
same,IC50,Mo,> 2560 nM
same,IC50,HDLM-2,1810 nM
same,IC50,GAMG,> 2560 nM
same,IC50,COLO-684,> 2560 nM
same,IC50,BB65-RCC,> 2560 nM
same,IC50,C8166,1220 nM
same,IC50,SK-MEL-1,> 2560 nM
same,IC50,HCC1395,> 2560 nM
same,IC50,HCE-T,> 2560 nM
same,IC50,SBC-5,> 2560 nM
same,IC50,ABC-1,> 2560 nM
same,IC50,SCC-4,> 2560 nM
same,IC50,U-251,> 2560 nM
same,IC50,HT-1080,> 2560 nM
same,IC50,NCI-H720,> 2560 nM
same,IC50,BEN,> 2560 nM
same,IC50,HCC2218,> 2560 nM
same,IC50,SCC-9,> 2560 nM
same,IC50,CHL-1,> 2560 nM
same,IC50,RPMI-8226,> 2560 nM
same,IC50,HSC-2,> 2560 nM
same,IC50,SNU-449,> 2560 nM
same,IC50,UO-31,1510 nM
same,IC50,DU-145,> 2560 nM
same,IC50,PC-3,> 2560 nM
same,IC50,K5,> 2560 nM
same,IC50,NCI-H1563,> 2560 nM
same,IC50,A-427,> 2560 nM
same,IC50,SK-LMS-1,> 2560 nM
same,IC50,G-402,> 2560 nM
same,IC50,RVH-421,> 2560 nM
same,IC50,OVCAR-5,> 2560 nM
same,IC50,LS-1034,> 2560 nM
same,IC50,A204,> 2560 nM
same,IC50,NCI-H1755,> 2560 nM
same,IC50,COR-L88,> 2560 nM
same,IC50,SF-126,> 2560 nM
same,IC50,HD-MY-Z,> 2560 nM
same,IC50,IA-LM,> 2560 nM
same,IC50,RPMI-7951,> 2560 nM
same,IC50,NCI-H1155,> 2560 nM
same,IC50,RERF-LC-MS,> 2560 nM
same,IC50,Becker,> 2560 nM
same,IC50,MOLT-16,> 2560 nM
same,IC50,RPMI-2650,> 2560 nM
same,IC50,TE-5,> 2560 nM
same,IC50,PA-1,> 2560 nM
same,IC50,SW 962,> 2560 nM
